In patent publication US20050234046A1 (Kalypsys, Inc., priority 2004, published 2005):
pEC50: −log10 of the molar value.

Key:
Experiment in all cases: Transient transfection (transactivation) assay in CV-1 cells, GAL4-PPAR chimera, luciferase reporter
Assay type in all cases: cell-based
PPAR gamma = biological target: T1, PPAR gamma (Homo sapiens, UniProt P37231)
T1 construct: expressed in transfected cells; host or cells: CV-1 cells
T1 sequence (P37231 238-503 limits assumed): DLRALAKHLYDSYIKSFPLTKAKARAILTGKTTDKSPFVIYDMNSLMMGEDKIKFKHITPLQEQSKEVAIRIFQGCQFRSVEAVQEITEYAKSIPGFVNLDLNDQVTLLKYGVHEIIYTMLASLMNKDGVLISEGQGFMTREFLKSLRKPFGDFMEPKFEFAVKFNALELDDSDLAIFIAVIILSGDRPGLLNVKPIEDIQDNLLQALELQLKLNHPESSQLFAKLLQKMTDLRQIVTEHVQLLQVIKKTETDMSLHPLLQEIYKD

PPAR delta = biological target: T2, PPAR delta (Homo sapiens, UniProt Q03181)
T2 construct: expressed in transfected cells; host or cells: CV-1 cells
T2 sequence (Q03181 211-439 limits assumed): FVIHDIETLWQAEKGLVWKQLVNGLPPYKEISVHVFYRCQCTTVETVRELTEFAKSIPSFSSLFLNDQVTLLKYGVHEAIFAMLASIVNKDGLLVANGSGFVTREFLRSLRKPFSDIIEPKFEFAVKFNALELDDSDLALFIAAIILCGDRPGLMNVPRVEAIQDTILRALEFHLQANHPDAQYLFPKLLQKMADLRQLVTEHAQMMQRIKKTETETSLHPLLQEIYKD
Text: Compounds may be screened for functional potency in transient transfection assays in CV-1 cells or other cell types for their ability to activate the PPAR subtypes (transactivation assay). A previously established chimeric receptor system was utilized to allow comparison of the relative transcriptional activity of the receptor subtypes on the same synthetic response element and to prevent endogenous receptor activation from complicating the interpretation of results. […] The ligand binding domains for murine and human PPAR-alpha, PPAR-gamma, and PPAR-delta are each fused to the yeast transcription factor GAL4 DNA binding domain. CV-1 cells were transiently transfected with expression vectors for the respective PPAR chimera along with a reporter construct containing four or five copies of the GAL4 DNA binding site driving expression of luciferase. After 8-16 h, the cells are replated into multi-well assay plates and the media is exchanged to phenol-red free DME medium supplemented with 5% delipidated calf serum. 4 hours after replating, cells were treated with either compounds or 1% DMSO for 20-24 hours. Luciferase activity was then assayed with Britelite (Perkin Elmer) following the manufacturer's protocol and measured with either the Perkin Elmer Viewlux or Molecular Devices Acquest Xsee, for example, Kliewer, S. A., et. al. Cell 1995, 83, 813-819). Rosiglitazone is used as a positive control in the hPPAR-γ assay. Wy-14643 and GW7647 is used as a positive control in the hPPAR-α assay. GW501516 is used as the positive control in the hPPAR-δ assay.

PPAR alpha = biological target: T3, PPAR alpha (Homo sapiens, UniProt Q07869)
T3 construct: expressed in transfected cells; host or cells: CV-1 cells
T3 sequence (Q07869 239-466 limits assumed): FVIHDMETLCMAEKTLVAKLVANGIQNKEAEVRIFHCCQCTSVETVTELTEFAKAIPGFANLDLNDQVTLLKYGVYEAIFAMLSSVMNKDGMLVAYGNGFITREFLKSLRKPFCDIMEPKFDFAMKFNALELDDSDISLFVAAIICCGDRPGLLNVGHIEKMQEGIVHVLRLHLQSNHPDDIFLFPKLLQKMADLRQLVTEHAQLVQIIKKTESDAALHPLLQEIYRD
Method in brief: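 GAL4 DNA-binding domain fused to PPAR ligand binding domain, co-transfected into CV-1 cells with a luciferase reporter carrying four or five GAL4 sites. Replated cells in phenol-red free DME with 5% delipidated calf serum were treated with compound or 1% DMSO for 20-24 hours; luciferase read for EC50 and efficacy.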

SMILES	pEC50 (PPAR gamma)	pEC50 (PPAR delta)	pEC50 (PPAR alpha)
CCOc1ccccc1N1CCN(S(=O)(=O)c2cccc(CC(=O)O)c2)CC1 [Example 142, {3-[4-(2-Ethoxy-phenyl)-piperazine-1-sulfonyl]-phenyl}-acetic acid]	< 4.00	< 4.00	< 4.00
O=C(O)Cc1cccc(S(=O)(=O)N2CCN(C/C=C/c3ccccc3)CC2)c1 [Example 143, {3-[4-(3-Phenyl-allyl)-piperazine-1-sulfonyl]-phenyl}-acetic acid]	< 4.00	4.00 to 5.30	4.00 to 5.30
O=C(O)Cc1cccc(S(=O)(=O)N2CCN(c3ccc(F)cc3)CC2)c1 [Example 144, {3-[4-(4-Fluoro-phenyl)-piperazine-1-sulfonyl]-phenyl}-acetic acid]	4.00 to 5.30	4.00 to 5.30	< 4.00
O=C(O)Cc1cccc(S(=O)(=O)N2CCN(c3ccccc3)CC2)c1 [Example 145, [3-(4-Phenyl-piperazine-1-sulfonyl)-phenyl]-acetic acid]	< 4.00	4.00 to 5.30	< 4.00
O=C(O)Cc1cccc(S(=O)(=O)N2CCN(C(c3ccccc3)c3ccccc3)CC2)c1 [Example 146, [3-(4-Benzhydryl-piperazine-1-sulfonyl)-phenyl]-acetic acid]	4.00 to 5.30	< 4.00	< 4.00
Cc1ccc(CC(=O)O)cc1S(=O)(=O)N1CCN(c2ccc(Cl)cc2)CC1 [Example 147, {3-[4-(4-Chloro-phenyl)-piperazine-1-sulfonyl]-4-methyl-phenyl}-acetic acid]	4.00 to 5.30	> 5.30	< 4.00
Cc1ccc(N2CCN(S(=O)(=O)c3cc(CC(=O)O)ccc3C)CC2)c(C)c1 [Example 148, {3-[4-(2,4-Dimethyl-phenyl)-piperazine-1-sulfonyl]-4-methyl-phenyl}-acetic acid]	< 4.00	< 4.00	< 4.00
Cc1cccc(N2CCN(S(=O)(=O)c3cc(CC(=O)O)ccc3C)CC2C)c1 (stereo not drawn) [Example 149, [4-Methyl-3-(3-methyl-4-m-tolyl-piperazine-1-sulfonyl)-phenyl]-acetic acid]	4.00 to 5.30	< 4.00	< 4.00
Cc1ccc(N2CCN(S(=O)(=O)c3cc(CC(=O)O)ccc3C)CC2)cc1C [Example 150, {3-[4-(3,4-Dimethyl-phenyl)-piperazine-1-sulfonyl]-4-methyl-phenyl}-acetic acid]	4.00 to 5.30	4.00 to 5.30	< 4.00
Cc1ccc(Cl)cc1N1CCN(S(=O)(=O)c2cc(CC(=O)O)ccc2C)CC1 [Example 151, {3-[4-(5-Chloro-2-methyl-phenyl)-piperazine-1-sulfonyl]-4-methyl-phenyl}-acetic acid]	4.00 to 5.30	< 4.00	< 4.00
Cc1ccc(CC(=O)O)cc1S(=O)(=O)N1CCN(CCc2ccccc2)CC1 [Example 152, [4-Methyl-3-(4-phenethyl-piperazine-1-sulfonyl)-phenyl]-acetic acid]	4.00 to 5.30	< 4.00	< 4.00
Cc1ccc(CC(=O)O)cc1S(=O)(=O)N1CCN(c2ccc(C#N)cc2)CC1 [Example 153, {3-[4-(4-Cyano-phenyl)-piperazine-1-sulfonyl]-4-methyl-phenyl}-acetic acid]	< 4.00	< 4.00	< 4.00
Cc1ccc(CC(=O)O)cc1S(=O)(=O)N1CCN(Cc2ccc(F)cc2)CC1 [Example 154, {3-[4-(4-Fluoro-benzyl)-piperazine-1-sulfonyl]-4-methyl-phenyl}-acetic acid]	4.00 to 5.30	< 4.00	< 4.00
COc1ccc(N2CCN(S(=O)(=O)c3cc(CC(=O)O)ccc3C)CC2)cc1 [Example 155, {3-[4-(4-Methoxy-phenyl)-piperazine-1-sulfonyl]-4-methyl-phenyl}-acetic acid]	< 4.00	< 4.00	< 4.00
Cc1ccc(CC(=O)O)cc1S(=O)(=O)N1CCN(c2ccc(C(C)(C)C)cc2)CC1 [Example 156, {3-[4-(4-tert-Butyl-phenyl)-piperazine-1-sulfonyl]-4-methyl-phenyl}-acetic acid]	4.00 to 5.30	4.00 to 5.30	< 4.00
COc1ccc(N2CCN(S(=O)(=O)c3cc(CC(=O)O)ccc3C)CC2)cc1OC [Example 157, {3-[4-(3,4-Dimethoxy-phenyl)-piperazine-1-sulfonyl]-4-methyl-phenyl}-acetic acid]	< 4.00	< 4.00	< 4.00

SMILES	pEC50 (PPAR gamma)	pEC50 (PPAR delta)	pEC50 (PPAR alpha)
Cc1ccc(CC(=O)O)cc1S(=O)(=O)N1CCN(c2ccc(C(F)(F)F)cc2[N+](=O)[O-])CC1 [Example 158, {4-Methyl-3-[4-(2-nitro-4-trifluoromethyl-phenyl)-piperazine-1-sulfonyl]-phenyl}-acetic acid]	< 4.00	4.00 to 5.30	< 4.00
COc1ccccc1N1CCN(S(=O)(=O)c2cc(CC(=O)O)ccc2C)CC1 [Example 159, {3-[4-(2-Methoxy-phenyl)-piperazine-1-sulfonyl]-4-methyl-phenyl}-acetic acid]	< 4.00	< 4.00	< 4.00
Cc1ccc(C)c(N2CCN(S(=O)(=O)c3cc(CC(=O)O)ccc3C)CC2)c1 [Example 160, {3-[4-(2,5-Dimethyl-phenyl)-piperazine-1-sulfonyl]-4-methyl-phenyl}-acetic acid]	4.00 to 5.30	< 4.00	< 4.00
Cc1ccc(CC(=O)O)cc1S(=O)(=O)N1CCN(CC2CCCCC2)CC1 [Example 161, [3-(4-Cyclohexylmethyl-piperazine-1-sulfonyl)-4-methyl-phenyl]-acetic acid]	4.00 to 5.30	< 4.00	< 4.00
Cc1ccc(CC(=O)O)cc1S(=O)(=O)N1CCN(c2ccccc2C#N)CC1 [Example 162, {3-[4-(2-Cyano-phenyl)-piperazine-1-sulfonyl]-4-methyl-phenyl}-acetic acid]	< 4.00	< 4.00	< 4.00
Cc1ccc(CC(=O)O)cc1S(=O)(=O)N1CCN(c2cnccn2)CC1 [Example 163, [4-Methyl-3-(2,3,5,6-tetrahydro-[1,2]bipyrazinyl-4-sulfonyl)-phenyl]-acetic acid]	< 4.00	< 4.00	< 4.00
Cc1ccc(CC(=O)O)cc1S(=O)(=O)N1CCN(C(c2ccccc2)c2ccc(Cl)cc2)CC1 (stereo not drawn) [Example 164]	4.00 to 5.30	4.00 to 5.30	< 4.00
Cc1ccc(CC(=O)O)cc1S(=O)(=O)N1CCN(c2ccc(Cl)c(Cl)c2)CC1 [Example 165, {3-[4-(3,4-Dichloro-phenyl)-piperazine-1-sulfonyl]-4-methyl-phenyl}-acetic acid]	4.00 to 5.30	> 5.30	< 4.00
Cc1cc(CC(=O)O)cc(S(=O)(=O)N2CCN(c3ccc(Cl)c(Cl)c3)CC2)c1 [Example 166, {3-[4-(3,4-Dichloro-phenyl)-piperazine-1-sulfonyl]-5-methyl-phenyl}-acetic acid]	4.00 to 5.30	> 5.30	4.00 to 5.30
Cc1cc(CC(=O)O)cc(S(=O)(=O)N2CCN(c3ccc(Cl)cc3)CC2)c1 [Example 167, {3-[4-(4-Chloro-phenyl)-piperazine-1-sulfonyl]-5-methyl-phenyl}-acetic acid]	4.00 to 5.30	> 5.30	< 4.00
Cc1cccc(N2CCN(S(=O)(=O)c3cc(C)cc(CC(=O)O)c3)CC2C)c1 (stereo not drawn) [Example 168, [3-Methyl-5-(3-methyl-4-m-tolyl-piperazine-1-sulfonyl)-phenyl]-acetic acid]	4.00 to 5.30	4.00 to 5.30	< 4.00
Cc1cc(CC(=O)O)cc(S(=O)(=O)N2CCN(c3ccc(C)c(C)c3)CC2)c1 [Example 169, {3-[4-(3,4-Dimethyl-phenyl)-piperazine-1-sulfonyl]-5-methyl-phenyl}-acetic acid]	4.00 to 5.30	4.00 to 5.30	< 4.00
Cc1cc(CC(=O)O)cc(S(=O)(=O)N2CCN(c3ccc(F)cc3F)CC2)c1 [Example 170]	< 4.00	4.00 to 5.30	< 4.00
Cc1cc(CC(=O)O)cc(S(=O)(=O)N2CCN(c3cccc(Cl)c3)CC2)c1 [Example 171, {3-[4-(3-Chloro-phenyl)-piperazine-1-sulfonyl]-5-methyl-phenyl}-acetic acid]	4.00 to 5.30	4.00 to 5.30	< 4.00
Cc1cc(CC(=O)O)cc(S(=O)(=O)N2CCN(c3ccccc3F)CC2)c1 [Example 172, {3-[4-(2-Fluoro-phenyl)-piperazine-1-sulfonyl]-5-methyl-phenyl}-acetic acid]	< 4.00	< 4.00	< 4.00
